6 molecules from patent US20190167761A1, “PHARMACEUTICAL COMPOSITION FOR PREVENTING OR TREATING STRESS-RELATED DISEASE, INCLUDING DISC1 PROTEIN OR GENE ENCODING THE SAME” (POSTECH ACADEMY-INDUSTRY FOUNDATION, priority 2017, published 2019) can be followed below.

Entries after “also recorded” stand apart in the source; their conditions may differ. Where two headings read alike, the source gives them in different places.

Experiment [1] relates to cerebral cortical neurons. In words: ER Ca2+ storage capacity / IP3 generation after corticosterone. The note with it: corticosterone for 1 hour. The experiment is classed as cell-based, mouse. On the procedure: To verify the hypothesis, changes in ROS and mitochondrial Ca^2+ levels in cerebral cortical neurons were assessed after treatment with corticosterone (CORT), which is a glucocorticoid stress hormone. […] To determine whether this glucocorticoid-dependent increase in mitochondrial Ca^2+ levels relies on the induction of oxidative stress, apocynin (APO), which is an antioxidant and a ROS scavenger, was used. […] In contrast, it was confirmed that, when neurons were treated with corticosterone for 1 hour, the capacity of the ER for Ca^2+ storage or IP3 generation was not changed.

The test system of experiment [2] is ER-mitochondria Ca^2+ transfer. In words: Corticosterone-induced mitochondrial Ca2+ levels in cerebral cortical neurons. The experiment is classed as cell-based, mouse. The note with it: for corticosterone-induced increase in mitochondrial Ca2+ levels: preincubation with the agent. On the procedure: (§1) To verify the hypothesis, changes in ROS and mitochondrial Ca^2+ levels in cerebral cortical neurons were assessed after treatment with corticosterone (CORT), which is a glucocorticoid stress hormone.

Experiment [3] relates to cerebral cortical neurons. In words: Corticosterone-induced ROS generation in cerebral cortical neurons. The experiment is classed as cell-based, mouse. On the procedure: as §1
In experiment [4] the test system is ER-mitochondria Ca^2+ transfer. Briefly: Oxidative stress (H2O2 / MSC)-induced mitochondrial Ca2+ levels in cerebral cortical neurons. The experiment is classed as cell-based, mouse. On the procedure: At this time, to measure mitochondrial Ca^2+ levels at specific time points during incubation of neurons with H2O2, Rhod2/AM, which is a mitochondria-specific chemical Ca^2+ indicator, was used instead of Mito-GCaMP6 capable of causing variations due to different expression levels of Mito-GCaMP6 at multiple time points.

The subject of experiment [5] is IP3R1. Briefly: Immunoprecipitation analysis of interaction between DISC1 and IP3R1. The experiment is classed as binding. From the text: IP3R1 is known to be predominantly expressed in the brain and abundant in the MAM. Therefore, the MAM localization of DISC1 was confirmed through Example 2, and to examine the interaction between DISC1 and IP3R1, the inventors of the present disclosure performed immunoprecipitation analysis on the two proteins. […] In addition, as illustrated in the immunoblotting results of FIG. 2C, it was confirmed that the endogenous DISC1 protein and the IP3R1 protein were expressed together in whole lysates and the crude MAM fraction ((MAM+Mito), which was derived from the brains of adult mice.

Experiment [6] relates to IP3R1. Briefly: Competitive IP3 binding assay. The note with it: proteins immunoprecipitated from HEK293FT cells; 3 nM [3H]-IP3, 4° C., 1 hour. On the procedure: Transfected HEK293FT cells were lysed in a NP40 buffer, and then the proteins were immunoprecipitated with antibodies. The immunoprecipitated proteins were incubated with 3 nM [^3H]-IP3 at 4° C. for 1 hour and the concentration of cold IP3 was increased in a Ca^2+-free CLM buffer. Meanwhile, brains were isolated from adult WT or DISC1 LI mice and lysed in a NP40 buffer by sonication, and then endogenous IP3R1 and the DISC1 protein were immunoprecipitated with specific antibodies, and then incubated with [^3H]-IP3 in the same manner as described above, and the concentration of cold IP3 was increased. Thereafter, the resulting mixture was filtered with a GF/B filter and washed three times with a CLM buffer, and then the filter was dried, and radioactivity was measured using a scintillation counter.
In IP3R1, the ligand-binding and modulatory domains are critical regions for ligand binding of IP3Rs, and thus the inventors of the present disclosure examined the influence of DISC1 on binding between IP3R1 and its ligand, i.e., IP3. For this, competitive IP3 binding analysis was performed using IP3R1, DISC1, or DISC1^Δ1-201, which was isolated from HEK293FT cells by immunoprecipitation with antibodies according to the methods of Examples 1 to 3.

Experiment [7] concerns ER-mitochondria Ca^2+ transfer. In words: IP3-induced mitochondrial Ca2+ imaging (Mito-GCaMP6) in permeabilized cerebral cortical neurons. The experiment is classed as cell-based, mouse. On the procedure: Neurons (DIV7-8) transfected with Mito-GCaMP6 along with each construct were permeabilized with digitonin and Ca^2+-free ionomycin at 37° C. for 2 minutes in a modified EGTA- and Ca^2+-free buffer, and then was exposed to IP3. To measure the effect of RiBFM on mitochondrial Ca^2+ responses, neurons were transfected with Mito GCaMP6, AKAP1-FKBP12, and FRB-SAC1 together with pFlag-cmv2 or Flag-DISC1 on DIV5-6, and neurons pre-incubated with rapamycin for 5 minutes were exposed to IP3 in the same manner as described above.
By considering the functional association between IP3R1 and DISC1 at the MAM, which was verified in the above example, the inventors of the present disclosure examined whether or not DISC1 was involved in regulating ER-mitochondria Ca^2+ transfer. For this, expression constructs for GCaMP6, which is a genetically encoded Ca^2+ indicator, were modified by combining the target sequences for mitochondria or the ER. Subsequently, it was confirmed that the organelle-specific GCaMP6 constructs were expressed in cerebral cortical neurons. In the case of ER Ca^2+ measurement, the results were verified using ER-GCaMP3, which has a relatively low affinity for Ca^2+. […]

[8] abbreviates: treatment with corticosterone for 1 hour.

Turning to `C[C@]12C[C@H](O)[C@H]3[C@@H](CCC4=CC(=O)CC[C@@]43C)[C@@H]1CC[C@@H]2C(=O)CO` [corticosterone], the “capacity of the ER for Ca2+ storage or IP3 generation” value in experiment [1] is “not changed”. Also, the “mitochondrial Ca2+ levels” value in experiment [2] (setting [8]) is on record as “significant increases”. Besides, in experiment [3] (setting [8]), the ROS levels entry is given as “significant increases”.

As for `NCCOB(c1ccccc1)c1ccccc1` [2-APB, 2-aminoethyl diphenylborinate], the “corticosterone-induced increase in mitochondrial Ca2+ levels” value in experiment [2] is given as “not observed”. Further, the “mitochondrial Ca2+ levels during incubation with H2O2” value in experiment [4] is given as “these results were not shown”.

Regarding `COc1cc(C(C)=O)ccc1O` [APO, apocynin], in experiment [2] (DISC1 shRNA vs CTL shRNA neurons, corticosterone 1 hour), the “corticosterone-induced mitochondrial Ca2+ levels” value is on record as “significantly reduced”. Besides, the “difference in mitochondrial Ca2+ accumulation between WT and DISC1 LI neurons” value in experiment [2] (corticosterone) is given as “significantly reduced”. In addition, the “corticosterone-induced increase in mitochondrial Ca2+ levels” value in experiment [2] is recorded as “significantly reduced”.

Take `OO` [H2O2, Hydrogen peroxide]: in experiment [4] (Rhod2/AM, specific time points), the “mitochondrial Ca2+ levels during incubation with H2O2” value was “increased proportional to the incubation time”.

B1: DISC1: disrupted in schizophrenia 1 (DISC1) protein, amino acid sequence of SEQ ID NO: 1 or SEQ ID NO: 2 (protein, UniProt Q9NRI5 1-854, looked up)
Disrupted in schizophrenia 1 …: MPGGGPQGAPAAAGGGGVSHRAGSRDCLPPAACFRRRRLARRPGYMRSSTGPGIGFLSPAVGTLFRFPGGVSGEESHHSESRARQCGLDSRGLLVRSPVSKSAAAPTVTSVRGTSAHFGIQLRGGTRLPDRLSWPCGPGSAGWQQEFAAMDSSETLDASWEAACSDGARRVRAAGSLPSAELSSNSCSPGCGPEVPPTPPGSHSAFTSSFSFIRLSLGSAGERGEAEGCPPSREAESHCQSPQEMGAKAASLDGPHEDPRCLSRPFSLLATRVSADLAQAARNSSRPERDMHSLPDMDPGSSSSLDPSLAGCGGDGSSGSGDAHSWDTLLRKWEPVLRDCLLRNRRQMEVISLRLKLQKLQEDAVENDDYDKAETLQQRLEDLEQEKISLHFQLPSRQPALSSFLGHLAAQVQAALRRGATQQASGDDTHTPLRMEPRLLEPTAQDSLHVSITRRDWLLQEKQQLQKEIEALQARMFVLEAKDQQLRREIEEQEQQLQWQGCDLTPLVGQLSLGQLQEVSKALQDTLASAGQIPFHAEPPETIRSLQERIKSLNLSLKEITTKVCMSEKFCSTLRKKVNDIETQLPALLEAKMHAISGNHFWTAKDLTEEIRSLTSEREGLEGLLSKLLVLSSRNVKKLGSVKEDYNRLRREVEHQETAYETSVKENTMKYMETLKNKLCSCKCPLLGKVWEADLEACRLLIQSLQLQEARGSLSVEDERQMDDLEGAAPPIPPRLHSEDKRKTPLKVLEEWKTHLIPSLHCAGGEQKEESYILSAELGEKCEDIGKKLLYLEDQLHTAIHSHDEDLIQSLRRELQMVKETLQAMILQLQPAKEAGEREAAASCMTAGVHEAQA
B1: the “IP3R1 domains that DISC1 interacted with” value in experiment [5] (expression constructs for functional domains of IP3R1) was “a ligand-binding domain (LBD) and modulatory domains (MD1, MD2, and MD3)”. The “interaction with IP3R1 (GFP-IP3R1)” value in experiment [5] (immunoprecipitation) is recorded as “strong interaction”. Besides, the “corticosterone-induced ROS generation” value in experiment [3] (DISC1 knockdown or overexpression in neurons) is given as “reduced ROS levels”. Besides, in experiment [4] (overexpression, 1 hour after H2O2 incubation, compared to control), the “degree to which mitochondrial Ca2+ levels were increased” value is “significantly reduced”. Moreover, the “binding ability of unlabeled IP3 relative to [3H]IP3 bound to IP3R1” value in experiment [6] was “decreased”. In addition, the “IP3-induced increase in mitochondrial Ca2+ levels” value in experiment [7] (overexpression in permeabilized neurons, compared to control (Vector)) is given as “significantly reduced the increase in mitochondrial Ca^2+ levels; also recorded: decreased”.

B2: hDISC1: human DISC1 resistant to shRNA (protein, UniProt Q9NRI5 1-854, looked up)
Disrupted in schizophrenia 1 …: B1 Disrupted in schizophrenia 1 …
modifications: shRNA-resistant silent changes
notes: human DISC1 resistant to shRNA
Take B2: the “IP3-dependent increase in mitochondrial Ca2+” value in experiment [7] (DISC1 expression inhibited, compared to control neurons (CTL shRNA)) is recorded as “restored similarly to the control”.
